# Source: publication PMC10763615, “Identification and engineering of potent cyclic peptides with selective or promiscuous binding through biochemical profiling and bioinformatic data analysis” (RSC Chemical Biology, 2023)
# pKd: −log10 of the molar value. Read-outs that look alike come from different tables or passages of the source. Positions of bridges follow the written chain, without caps; N, C: chain ends. Residues, ends and D or L forms follow the SMILES beside them.
# How the values were obtained:
# Assay type in all cases: binding
# FGF-R1C ECD = molecular target: T1, FGF-R1C ECD (Homo sapiens, UniProt P11362); test: biochemical; design: DNA constructs for the extracellular domain (ECD) of human FGF-; HPC4 (C); made in house; host or cells: HEK 293-6E
# T1 sequence (P11362 22-376 limits assumed): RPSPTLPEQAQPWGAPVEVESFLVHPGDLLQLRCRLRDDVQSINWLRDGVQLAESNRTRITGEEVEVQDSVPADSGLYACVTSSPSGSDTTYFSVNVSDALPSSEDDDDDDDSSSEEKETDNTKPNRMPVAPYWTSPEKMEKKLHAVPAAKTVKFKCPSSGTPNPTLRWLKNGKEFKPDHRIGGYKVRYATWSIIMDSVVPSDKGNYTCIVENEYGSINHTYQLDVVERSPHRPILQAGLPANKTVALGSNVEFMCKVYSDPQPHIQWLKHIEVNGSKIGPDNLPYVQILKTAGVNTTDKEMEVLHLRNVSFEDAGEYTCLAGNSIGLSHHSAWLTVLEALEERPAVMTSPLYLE
# Summary of the method: (§1)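 Biotinylated FGF-R ECD on streptavidin biosensors was dipped into ~1 μM crude peptide in PBS pH7.4 with 0.05% Tween-20 and 0.01% BSA for association, then into buffer for dissociation, and followed by BLI. Fitted KD values were adjusted for peptide concentration measured by UPLC-CAD.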
# FGF-R3C ECD = molecular target: T2, FGF-R3C ECD (Homo sapiens, UniProt P22607); test: biochemical; design: DNA constructs for the extracellular domain (ECD) of human FGF-; HPC4 (C); made in house; host or cells: HEK 293-6E
# T2 sequence (P22607 23-375 limits assumed): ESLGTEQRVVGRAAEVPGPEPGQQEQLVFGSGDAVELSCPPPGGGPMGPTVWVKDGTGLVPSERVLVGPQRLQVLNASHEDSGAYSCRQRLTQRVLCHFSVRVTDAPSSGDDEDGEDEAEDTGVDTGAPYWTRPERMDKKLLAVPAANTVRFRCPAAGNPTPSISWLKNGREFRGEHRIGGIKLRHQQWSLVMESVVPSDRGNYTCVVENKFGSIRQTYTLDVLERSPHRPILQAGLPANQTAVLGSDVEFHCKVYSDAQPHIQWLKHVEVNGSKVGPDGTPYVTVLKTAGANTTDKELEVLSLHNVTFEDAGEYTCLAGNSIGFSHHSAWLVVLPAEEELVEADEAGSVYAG
# Summary of the method: as §1
# FGF-R4 ECD = molecular target: T3, FGF-R4 ECD (Homo sapiens, UniProt P22455); test: single concentration BLI of crude peptides
# T3 construct: DNA constructs for the extracellular domain (ECD) of human FGF-; HPC4 (C); made in house; host or cells: HEK 293-6E
# T3 sequence (P22455 22-369 limits assumed): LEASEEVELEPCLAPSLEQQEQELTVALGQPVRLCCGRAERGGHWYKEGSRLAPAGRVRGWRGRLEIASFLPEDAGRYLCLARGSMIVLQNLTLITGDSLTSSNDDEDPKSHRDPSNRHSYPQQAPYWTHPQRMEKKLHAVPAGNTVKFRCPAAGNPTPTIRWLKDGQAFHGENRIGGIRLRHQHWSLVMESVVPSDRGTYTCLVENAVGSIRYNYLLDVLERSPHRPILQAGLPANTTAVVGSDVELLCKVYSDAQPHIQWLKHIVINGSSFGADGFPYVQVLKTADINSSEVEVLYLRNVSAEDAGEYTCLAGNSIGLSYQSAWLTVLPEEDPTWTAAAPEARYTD
# Summary of the method: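 Streptavidin biosensors carrying biotinylated FGF receptor ECD were immersed in peptide (~1 μM for crude single-point runs, a concentration series for purified peptides) and then in peptide-free buffer. KD was obtained by fitting the BLI association and dissociation curves.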
# [1] = crude T18 selection 1 (1:1:1) peptides, single concentration BLI (Table S4), read-out: KD (4)
Structure (SMILES),pKd (FGF-R1C ECD),pKd (FGF-R3C ECD),pKd (FGF-R4 ECD; [1]),pKd (FGF-R4 ECD),"pKd (FGF-R4 ECD; crude NNK peptides, single concentration BLI (Table S3), read-out: KD (4))"
CC[C@H](C)[C@@H]1NC(=O)[C@H](Cc2c[nH]c3ccccc23)NC(=O)[C@H]([C@@H](C)CC)NC(=O)[C@H](CO)NC(=O)[C@@H]2CCCN2C(=O)[C@H](Cc2c[nH]cn2)NC(=O)[C@H](CO)NC(=O)[C@H](Cc2c[nH]c3ccccc23)NC(=O)[C@H](Cc2c[nH]c3ccccc23)NC(=O)[C@H](C(C)C)NC(=O)[C@@H](NC(=O)[C@H](CCSC)NC(C)=O)CSSC[C@@H](C(=O)NCC(=O)N[C@@H](CO)C(=O)NCC(=O)N[C@@H](CO)C(=O)N[C@@H](CC(=O)O)C(=O)N[C@@H](Cc2ccc(O)cc2)C(=O)N[C@@H](CCCCN)C(=O)N[C@@H](CC(=O)O)C(=O)N[C@@H](CC(=O)O)C(=O)N[C@@H](CC(=O)O)C(=O)N[C@@H](CC(=O)O)C(=O)N[C@@H](CCCCN)C(N)=O)NC1=O (Ac-MCVWWSHPSIWICGSGSDYKDDDDK-NH2; disulfide 2-13),7.19,< 5.00,< 5.00,–,–
CC[C@H](C)[C@@H]1NC(=O)[C@H](Cc2c[nH]cn2)NC(=O)[C@@H](NC(=O)[C@H](CCSC)NC(C)=O)CSSC[C@@H](C(=O)NCC(=O)N[C@@H](CO)C(=O)NCC(=O)N[C@@H](CO)C(=O)N[C@@H](CCC(=O)O)C(=O)N[C@@H](CCC(=O)O)C(=O)NCC(=O)N[C@@H](CO)C(=O)NCC(=O)N[C@@H](CO)C(=O)N[C@@H](CC(=O)O)C(=O)N[C@@H](Cc2ccc(O)cc2)C(=O)N[C@@H](CCCCN)C(=O)N[C@@H](CC(=O)O)C(=O)N[C@@H](CC(=O)O)C(=O)N[C@@H](CC(=O)O)C(=O)N[C@@H](CC(=O)O)C(=O)N[C@@H](CCCCN)C(N)=O)NC(=O)[C@H](Cc2c[nH]cn2)NC(=O)[C@H](CCCCN)NC(=O)[C@H](CCCNC(=N)N)NC(=O)[C@H](C(C)C)NC(=O)[C@H](CC(C)C)NC(=O)[C@H](CCC(N)=O)NC(=O)[C@H](Cc2c[nH]c3ccccc23)NC(=O)[C@H](Cc2ccc(O)cc2)NC(=O)[C@H](CCCNC(=N)N)NC1=O (Ac-MCHIRYWQLVRKHCGSGSEEGSGSDYKDDDDK-NH2; disulfide 2-14),< 5.00,< 5.00,8.00,–,–
CC[C@H](C)[C@@H]1NC(=O)[C@H](Cc2ccc(O)cc2)NC(=O)[C@H](CCCNC(=N)N)NC(=O)[C@H](Cc2c[nH]cn2)NC(=O)[C@@H](NC(=O)[C@H](CCSC)NC(C)=O)CSSC[C@@H](C(=O)NCC(=O)N[C@@H](CO)C(=O)NCC(=O)N[C@@H](CO)C(=O)N[C@@H](CC(=O)O)C(=O)N[C@@H](Cc2ccc(O)cc2)C(=O)N[C@@H](CCCCN)C(=O)N[C@@H](CC(=O)O)C(=O)N[C@@H](CC(=O)O)C(=O)N[C@@H](CC(=O)O)C(=O)N[C@@H](CC(=O)O)C(=O)N[C@@H](CCCCN)C(N)=O)NC(=O)[C@H](Cc2c[nH]cn2)NC(=O)[C@H](Cc2c[nH]c3ccccc23)NC(=O)[C@H](Cc2ccc(O)cc2)NC(=O)[C@H](CC(=O)O)NC(=O)[C@H](CC(C)C)NC(=O)[C@H](Cc2ccc(O)cc2)NC1=O (Ac-MCHRYIYLDYWHCGSGSDYKDDDDK-NH2; disulfide 2-13),< 5.00,< 5.00,–,7.36,–
CSCC[C@H](NC(C)=O)C(=O)N[C@H]1CSSC[C@@H](C(=O)NCC(=O)N[C@@H](CO)C(=O)NCC(=O)N[C@@H](CO)C(=O)N[C@@H](CC(=O)O)C(=O)N[C@@H](Cc2ccc(O)cc2)C(=O)N[C@@H](CCCCN)C(=O)N[C@@H](CC(=O)O)C(=O)N[C@@H](CC(=O)O)C(=O)N[C@@H](CC(=O)O)C(=O)N[C@@H](CC(=O)O)C(=O)N[C@@H](CCCCN)C(N)=O)NC(=O)[C@H](CO)NC(=O)[C@H](Cc2c[nH]cn2)NC(=O)[C@H](Cc2ccccc2)NC(=O)[C@H](CC(C)C)NC(=O)[C@H](CCCCN)NC(=O)[C@H](Cc2ccc(O)cc2)NC(=O)[C@H](Cc2ccc(O)cc2)NC(=O)[C@H](CC(C)C)NC(=O)[C@H](CC(C)C)NC(=O)[C@H](Cc2c[nH]cn2)NC1=O (Ac-MCHLLYYKLFHSCGSGSDYKDDDDK-NH2; disulfide 2-13),7.20,< 5.00,6.94,–,–
CSCC[C@H](NC(C)=O)C(=O)N[C@H]1CSSC[C@@H](C(=O)NCC(=O)N[C@@H](CO)C(=O)NCC(=O)N[C@@H](CO)C(=O)N[C@@H](CC(=O)O)C(=O)N[C@@H](Cc2ccc(O)cc2)C(=O)N[C@@H](CCCCN)C(=O)N[C@@H](CC(=O)O)C(=O)N[C@@H](CC(=O)O)C(=O)N[C@@H](CC(=O)O)C(=O)N[C@@H](CC(=O)O)C(=O)N[C@@H](CCCCN)C(N)=O)NC(=O)[C@H](Cc2c[nH]c3ccccc23)NC(=O)[C@H](CC(C)C)NC(=O)[C@H](CCCNC(=N)N)NC(=O)[C@H](Cc2ccc(O)cc2)NC(=O)[C@H](CC(C)C)NC(=O)[C@H](Cc2c[nH]c3ccccc23)NC(=O)[C@H](CC(C)C)NC(=O)[C@H](CC(=O)O)NC(=O)[C@H](CCCCN)NC(=O)[C@H](CO)NC(=O)[C@H](Cc2ccc(O)cc2)NC(=O)[C@H](CCCCN)NC1=O (Ac-MCKYSKDLWLYRLWCGSGSDYKDDDDK-NH2; disulfide 2-15),< 5.00,< 5.00,8.70,–,–
CC[C@H](C)[C@@H]1NC(=O)[C@H]([C@@H](C)O)NC(=O)[C@H](C(C)C)NC(=O)[C@H](Cc2ccc(O)cc2)NC(=O)[C@H](Cc2c[nH]c3ccccc23)NC(=O)[C@H](CC(=O)O)NC(=O)[C@@H](NC(=O)[C@H](CCSC)NC(C)=O)CSSC[C@@H](C(=O)NCC(=O)N[C@@H](CO)C(=O)NCC(=O)N[C@@H](CO)C(=O)N[C@@H](CC(=O)O)C(=O)N[C@@H](Cc2ccc(O)cc2)C(=O)N[C@@H](CCCCN)C(=O)N[C@@H](CC(=O)O)C(=O)N[C@@H](CC(=O)O)C(=O)N[C@@H](CC(=O)O)C(=O)N[C@@H](CC(=O)O)C(=O)N[C@@H](CCCCN)C(N)=O)NC(=O)[C@H](CCCCN)NC(=O)[C@H](CCCCN)NC(=O)[C@H](CC(C)C)NC(=O)[C@H](C(C)C)NC(=O)[C@H](CCCCN)NC(=O)[C@H](Cc2ccc(O)cc2)NC1=O (Ac-MCDWYVTIYKVLKKCGSGSDYKDDDDK-NH2; disulfide 2-15),< 5.00,< 5.00,8.10,–,–
CSCC[C@H](NC(C)=O)C(=O)N[C@H]1CSSC[C@@H](C(=O)NCC(=O)N[C@@H](CO)C(=O)NCC(=O)N[C@@H](CO)C(=O)N[C@@H](CC(=O)O)C(=O)N[C@@H](Cc2ccc(O)cc2)C(=O)N[C@@H](CCCCN)C(=O)N[C@@H](CC(=O)O)C(=O)N[C@@H](CC(=O)O)C(=O)N[C@@H](CC(=O)O)C(=O)N[C@@H](CC(=O)O)C(=O)N[C@@H](CCCCN)C(N)=O)NC(=O)[C@H](C(C)C)NC(=O)[C@H](CCCCN)NC(=O)[C@H](Cc2ccccc2)NC(=O)[C@H](Cc2c[nH]c3ccccc23)NC(=O)[C@H](Cc2ccccc2)NC(=O)[C@H](CCC(=O)O)NC(=O)[C@H](Cc2c[nH]cn2)NC(=O)[C@H](CCC(N)=O)NC(=O)[C@H](CCCCN)NC(=O)[C@H](Cc2ccccc2)NC(=O)[C@H](Cc2c[nH]c3ccccc23)NC(=O)[C@H](Cc2c[nH]c3ccccc23)NC1=O (Ac-MCWWFKQHEFWFKVCGSGSDYKDDDDK-NH2; disulfide 2-15),< 5.00,< 5.00,8.70,–,–
CC[C@H](C)[C@@H]1NC(=O)[C@H](Cc2ccc(O)cc2)NC(=O)[C@H](C)NC(=O)[C@H](CC(C)C)NC(=O)[C@H](Cc2c[nH]c3ccccc23)NC(=O)[C@@H](NC(=O)[C@H](CCCCN)NC(=O)[C@@H](NC(=O)[C@H](CCSC)NC(=O)[C@H](CCSC)NC(C)=O)C(C)C)CSSC[C@@H](C(=O)NCC(=O)N[C@@H](CO)C(=O)NCC(=O)N[C@@H](CO)C(=O)N[C@@H](CC(=O)O)C(=O)N[C@@H](Cc2ccc(O)cc2)C(=O)N[C@@H](CCCCN)C(=O)N[C@@H](CC(=O)O)C(=O)N[C@@H](CC(=O)O)C(=O)N[C@@H](CC(=O)O)C(=O)N[C@@H](CC(=O)O)C(=O)N[C@@H](CCCCN)C(N)=O)NC(=O)[C@H]([C@@H](C)O)NC(=O)[C@H](CCCNC(=N)N)NC1=O (Ac-MMVKCWLAYIRTCGSGSDYKDDDDK-NH2; disulfide 5-13),< 5.00,< 5.00,–,–,< 5.00
